According to patent US9783859B2, “Method of screening and quantifying various enzymatic activities using artificial genetic circuits” (KOREA RESEARCH INSTITUTE OF BIOSCIENCE AND BIOTECHNOLOGY, priority 2009, dated 2017):
Like-named read-outs stand apart in the source and are kept apart here.

What was measured:
[1] = test system: Pseudomonas sp. methyl parathion hydrolase (MPH); test: sensing of methyl parathion hydrolase activity with pGESS-EGFP (III); format: cell-based; conditions: 0.1 mM substrate, GFP emission at 510 nm
Description: The cells were lysed, and the supernatant was analyzed with a fluorescence spectrometer (Varian, Australia), thereby examining whether the emission wavelength of GFP was detected at 510 nm.

[2] = test system: phenol-sensing artificial genetic circuit pGESS-EGFP(I) (dmpR); conditions: solid medium, 30° C. 36 hours, fluorescence microscope
Description: In order to quantitatively analyze the function of the artificial genetic circuit (constructed in Example 1) to sense phenol, a single colony of recombinant E. coli BL21 containing pGESS-EGFP(I) was inoculated into LB liquid medium containing 50 μg/ml of ampicillin and was cultured with shaking overnight at 37° C.

[3] = test system: phenol-sensing artificial genetic circuit pGESS-EGFP(I) (dmpR)
Description: The dependence of sensitivity of the artificial genetic circuit on the concentration of the inducer phenol was confirmed using a fluorescence spectrometer. For this purpose, a single colony of recombinant E. coli containing pGESS-EGFP(I) was inoculated into LB liquid medium supplemented with 50 μg/ml of ampicillin and was cultured with shaking overnight at 37° C. The above pre-culture was inoculated into LB liquid medium containing 50 μg/ml of ampicillin and various concentrations (0.1-1000 μM) of phenol to a concentration of 1% (v/v) and was cultured with shaking at 30° C. for 20 hours. To analyze the intensity of fluorescence, the cells were disrupted, and the intensity of fluorescence in the supernatant was analyzed using a fluorescence spectrometer.

[4] = test system: genetic circuit pGESS-Cm(II)
Description: (§1) Next, the genetic circuits (pGESS-Cm(II), pGESS-Tc(II), and pGESS-Km(II)) comprising the antibiotic resistance gene as the reporter were used to perform quantitative antibiotic resistance analysis. A single colony of E. coli JM109(DE3) containing each genetic circuit comprising chloramphenicol, tetracycline or kanamycin resistance gene as a reporter was inoculated into liquid medium containing 50 μg/ml of ampicillin and was cultured with shaking overnight at 37° C. The pre-culture was 10^6-fold diluted, and 100 μl of the dilution was plated on each of selective media and cultured overnight at 37° C. for 3 days. The number of colonies produced on the solid medium was counted, thereby performing the resistance test. 50 μg/ml of ampicillin and various concentrations (0, 10, 20 and 30 μg/ml) of each of selective antibiotics (chloramphenicol, tetracycline and kanamycin resistance) were added to each selective medium. Also, a transcriptional activator, that is, phenol, was added at a concentration of 1-1000 μM.

[5] = test system: genetic circuit pGESS-Km(II); conditions: phenol 1-1000 μM
Description: as §1

[6] = test system: genetic circuit pGESS-Tc(II); conditions: phenol 1-1000 μM
Description: as §1

[7] = test system: artificial genetic circuit pGESS-EGFP (I) (dmpR); format: cell-based, E. coli DH5α; conditions: 0.1-1000 μM tested, overnight at 30° C., LB medium
Description: The signals of the artificial genetic circuit for phenolic compounds were quantitatively analyzed. Specifically, a single colony of E. coli DH5α containing pGESS-EGFP (I) was inoculated into LB liquid medium containing 50 μg/ml of ampicillin and was cultured with shaking overnight at 37° C. The culture was inoculated into LB medium containing 50 μg/ml of ampicillin to a concentration of 1% (v/v), and 0.1-1000 μM of each of phenol, o-chlorophenol, m-chlorophenol, o-nitrophenol, catechol and resorcinol was added thereto and cultured with shaking overnight at 30° C. The cells were lysed, and the supernatant was analyzed by a fluorescence spectrometer (Varian, Australia), thereby measuring the fluorescence of GFP at 510 nm.

[8] = test system: genetic circuit pGESS-EGFP (II)
Description: In the present invention, in order to increase the ability of the genetic circuit to sense phenolic compounds, the reaction of the genetic circuit was performed using the optimal medium and carbon source selected in Example 5, and the cell growth step and the step of activating (analyzing) the genetic circuit were separated from each other, thereby attempting the optimization of the sense system. Specifically, the bacterial cells were made healthy using LB medium during growth, and the cells were recovered and the activity of the genetic circuit therein was analyzed in the M9 medium containing acetate as a carbon source.
Specifically, a colony introduced with the genetic circuit was inoculated into LB medium and was cultured with shaking overnight at 37° C., and next day, the culture was inoculated into LB medium at a concentration of 1% (v/v) and was cultured with shaking at 37° C. When the cell growth (OD600/ml) reached about 2.5, the cultured cells were recovered and subjected to activation of the genetic circuit. For activation of the genetic circuit, the recovered bacterial cells were washed once with M9 medium, after they were suspended in M9 (acetate) media containing various concentrations of phenols and were cultured with shaking at 30° C. for 16 hours. Each medium was supplemented with 50 μg/ml of ampicillin as a selective marker. The intensity of fluorescence in cells induced by each concentration of phenol was measured using FACSAria system (Becton Dickinson, US). As a detector, an FSC, SSC, FL1-H (excitation=488 nm, emission=530/30 nm) detector was set, and data obtained by 50,000 sample cells were analyzed using FACSDiVa (Becton Dickinson, USA) (see FIG. 19 C).

[9] = test system: genetic circuit pGESS-EGFP (III), mutant dmpR (E135K); format: cell-based, E. coli
Description: The colony introduced with the pGESS-EGFP (II) or pGESS-EGFP (III) genetic circuit was inoculated into LB medium and was cultured with shaking at 37° C. Next day, the culture was inoculated into LB medium to a concentration of 1% (v/v) and was cultured with shaking at 37° C. When the cell growth (OD600/ml) reached about 2.5, the cultured cells were recovered and subjected to activation of the genetic circuit. For activation of the genetic circuit, the recovered bacterial cells were washed once with M9 medium, after which they were suspended in M9 (acetate) media containing various concentrations of phenol and were cultured with shaking. Each medium was supplemented with 50 μg/ml of ampicillin as a selection marker. The bacterial cell growth was predicted by measuring absorbance (OD600) using a UV/VIS spectrometer (Ultrospec 3000, Pharmacia Biotech, Sweden), and the fluorescence intensity was measured using a fluorescence plate reader (Multi-label reader, PerkinElmer, USA).
Next, the measurement of sensitivities to 2-nitrophenol and 4-nitrophenol was performed. The measurement was performed in the same manner as above, and various concentrations of 2-nitrophenol and 4-nitrophenol in addition to phenol were added and allowed to react.

[10] = target: T1, C. freundii tyrosine-phenol lyase (TPL) (Citrobacter freundii, UniProt P31013); test: sensing of tyrosine-phenol lyase activity with pGESS-EGFP (I); format: cell-based; conditions: 1 mM tyrosine, 10 μM PLP, 30° C. 20 hours
T1 construct: expressed in transfected cells; host or cells: E. coli DH5α containing pGESS-EGFP (I), plasmid pEC-TPL
Description: The GESS genetic circuit of the present invention can also be used to sense a reaction (phenol-lyase) of liberating phenol from substrates (Ph-C—(R)) comprising carbon coupled to phenol. In the present invention, whether the GESS genetic circuit senses the activity of TPL (enzyme degrading tyrosine into phenol, pyruvic acid and ammonia) was examined in order to verify the effectiveness of TPL. Specifically, C. freundii TPL gene was cloned into pEC11a (obtained by replacing the on of pET11a(+) with ACYC ori) to prepare pEC-TPL which was then introduced into E. coli DH5α containing pGESS-EGFP (I).

[11] = enzymatic properties of novel alkaline phosphatase (pNPP hydrolysis, absorbance at 405 nm); format: biochemical; conditions: 15 minutes, at 80° C. or below
Description: The optimum pH and temperature, thermal stability and substrate specificity of the selected alkaline phosphatase and the effect thereof on metal ions were examined. An enzymatic reaction was performed in the following manner. The enzymatic reaction was performed using a mixture of 50 mM diethanolamine, DEA (pH 9.0) buffer, 0.5 mM para-nitrophenylphosphate (pNPP) and the enzyme at 37° C. for 5 minutes. The same amount of 1M NaOH was added to stop the enzymatic reaction, and the amount of nitrophenol produced by the enzymatic reaction was measured. the measurement was performed by measuring the absorbance at 405 nm using a fluorescence plate reader (Victor5, Perkin-Elmer, USA). 1 unit was defined as the amount of enzyme that can produce 1 μmol of para-nitrophenol per minute at 37° C.
In order to examine the optimum pH of the novel alkaline phosphatase, the activities thereof at a pH of 7.0 to 10.5 were compared. At a pH of 7.0 to 8.5, 50 mM Tris-HCl buffer was used, and at a pH of 7.5 to 10.5, 50 mM DEA buffer was used.
In addition, the activities of the enzyme at various temperatures were compared. […] (see FIG. 25B). In addition, in order to examine the thermal inactivation of the enzyme, the enzyme was allowed to stand at various temperatures for 15 minutes, and then the remaining enzymatic activity was measured. […]

T1 sequence (P31013 whole entry): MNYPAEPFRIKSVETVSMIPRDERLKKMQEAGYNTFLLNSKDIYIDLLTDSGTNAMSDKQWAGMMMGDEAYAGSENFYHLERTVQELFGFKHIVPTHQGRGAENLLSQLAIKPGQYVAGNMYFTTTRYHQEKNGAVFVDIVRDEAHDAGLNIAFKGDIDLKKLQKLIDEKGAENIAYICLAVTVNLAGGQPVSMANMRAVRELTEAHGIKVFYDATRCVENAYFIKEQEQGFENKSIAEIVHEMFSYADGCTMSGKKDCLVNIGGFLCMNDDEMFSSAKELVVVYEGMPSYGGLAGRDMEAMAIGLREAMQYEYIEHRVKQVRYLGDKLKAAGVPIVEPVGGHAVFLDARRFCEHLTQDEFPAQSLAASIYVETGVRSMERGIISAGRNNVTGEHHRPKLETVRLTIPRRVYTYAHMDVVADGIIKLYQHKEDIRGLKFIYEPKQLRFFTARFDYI

COP(=S)(OC)Oc1ccc([N+](=O)[O-])cc1 [methyl parathion]
fluorescence in the presence of MPH [1]: strong fluorescence was observed

Oc1ccccc1 [phenol]
phenol concentration at which colony fluorescence was observed [2]: more than 1 μM | phenol concentration at which a clear fluorescent signal was observed ([3]; LB liquid medium, 30° C. 20 hours, fluorescence spectrometer): ≥ 10 µM | phenol concentration range in which the genetic circuit is quantitatively activated ([3]; pGESS-EGFP(I)): 1 to 1000 µM | resistance to chloramphenicol ([4]; phenol concentration 100 μM): 40 µg/mL | resistance to chloramphenicol ([4]; phenol concentration 1 mM): 50 µg/mL | resistance to chloramphenicol ([4]; phenol concentration of 10 μM): ≤ 20 µg/mL | phenol-dependent kanamycin resistance (colony formation) [5]: the formation of colonies was not sensed | phenol-dependent tetracycline resistance (colony formation) [6]: quantitative results similar to those in the case of chloramphenicol | concentration from which fluorescence started to be sensed [7]: 1 µM | increase of reaction value ([8]; 2-step activity analysis): about 5 times | sensitivity relative to the previous sensitivity ([8]; 2-step activity analysis): about 10 times | concentration range of phenol which could be quantitatively analyzed ([8]; 2-step activity analysis, M9 (acetate)): 1 to 10 µM | phenol concentration that could be sensed by 2-step activity analysis ([8]; M9 (acetate), 30° C. 16 hours): at least 1 μM | sensitivity relative to wild dmpR ([9]; mutant dmpR vs wild dmpR (pGESS-EGFP (II))): about 10 times | relative sensitivity among phenol, 4-nitrophenol and 2-nitrophenol ([9]; pGESS-EGFP (III)): highest | concentration range which could be quantitatively sensed ([9]; pGESS-EGFP (III), mutant dmpR, M9 (acetate)): 0.1 to 10 µM

N[C@@H](Cc1ccc(O)cc1)C(=O)O [tyrosine]
intensity of fluorescence in the cell lysis due to TPL activity [10]: significantly increased

alkaline phosphatase (BAP) from E. coli: alkaline phosphatase (BAP) from E. coli
thermal inactivation [11]: not inactivated
